In article PMC2361071, “A phase I and pharmacokinetic study of novel taxane BMS-188797 and cisplatin in patients with advanced solid tumours” (British Journal of Cancer, 2005):
Entries after “also recorded” stand apart in the source; their conditions may differ. Read-outs that look alike come from different tables or passages of the source.

Tests used:
[1] = Plasma pharmacokinetics of BMS-188797 in patients, cycle 1 (HPLC, noncompartmental analysis); format: in vivo, human; conditions: for AUC(0-inf) / Cmax / half-life: human, plasma, intravenous
Description: In all, 5 ml of blood were collected for pharmacokinectic analysis using Becton-Dickenson Vacutainers® that contained K3EDTA as the anticoagulant. Blood sampling for pharmacokinetics analysis was performed in all patients during cycle 1. Serial blood samples were drawn at the following times relative to the start of the 1 h infusion of BMS-188797: predose, 30 min, 58 min (drawn prior to the end of the infusion), and 1.25, 1.5, 2, 2.5, 3, 4, 5, 6, 8, 24, 48 and 72 h. Within 1 h of collection, the plasma was separated by centrifugation at 1000 rpm for 15 min at 4°C. Plasma was stored at or below […] until analysis. Plasma samples were analysed for BMS-188797 concentrations by HPLC. After the addition of internal standard, BMS-183061, to 1.0 ml of plasma, the sample was loaded onto a CN-U solid-phase extraction column. The compounds were eluted with 0.1% formic acid in methanol, the eluate evaporated to dryness, and the residue reconstituted. Chromatographic separation of the compounds was achieved on a YMC-ODS-AQ, 4.6 × 150 mm, 3 μm column using a mobile phase containing 30% water in acetonitrile. Detection was by ultraviolet absorbance at 228 nm. The standard curve range was 2–1000 ng ml^−1. The coefficient of variation (CV) for the between- and within-run precision for analytical quality control samples were no greater than 3.0 and 7.1%, respectively
Estimates of pharmacokinetic parameters for BMS-188797 were derived from individual concentration–time data sets by noncompartmental analyses ([Gibaldi and Perrier, 1982]). The values of the maximum plasma concentration (Cmax) were recorded directly from experimental observations. The area under the plasma concentration vs. time curve from time zero to the time of the last measurable concentration T (AUC0-T) was calculated using a combination of linear and log trapezoidal summations. The first-order rate constant of decline of BMS-188797 concentrations in the terminal phase of the plasma concentration–time data set, λ, was estimated by log-linear regression, using no weighting factor, of at least three data points yielding a minimum mean square error. The absolute value of λ was used to estimate the apparent terminal elimination half-life, t1/2. The last measurable concentration and the rate constant, λ, were used to extrapolate the AUC0-T to estimate AUC0-∞ (the area under the curve from time zero to infinity). The total body clearance (Cl) was calculated by dividing the dose by AUC0-∞. The volume of distribution at steady state (VSS) was calculated using standard noncompartmental methods.

[2] = test system: patients with advanced solid tumours; test: Phase I dose escalation of BMS-188797 plus cisplatin: DLT, MTD and toxicity (NCI CTC v2.0); format: in vivo
Description: This study was an open-label, single-centre, phase I, dose-escalation trial with the primary objective to determine the MTD and DLT and to recommend a future phase II dose. Secondary objectives were safety, antitumour activity and pharmacokinetics of the experimental drug. The study was carried out with ethical committee approval.
BMS-188797 administered by a 1-h infusion was followed by a 1-h infusion of cisplatin starting 30 min after the end of the BMS-188797 infusion; both drugs were given on day 1, every 3 weeks. Six treatment cycles were planned. Treatment had to be discontinued upon progression or occurance of intolerable toxicity.
If no further DLT occurred, the next DL was opened. If the total number of patients with DLT at any DL was two or higher, then dose escalation was terminated and additional patients were enrolled at the next lower DL. The MTD was defined as the DL at which none of the three or one of six patients experienced a DLT. Once the MTD had been established, accrual at the respective DL was expanded to determine its suitability as the recommended phase II dose.
The DLT was defined as first-course toxicity with ANC <500 μl^−1 for ⩾5 days, or febrile neutropenia (fever >38.5°C and ANC <1000 μl^−1), or thrombocytopenia <25,000 μl^–1; or bleeding requiring platelet transfusion, or any other drug-related grade ⩾3 toxicity except fatigue/asthenia, transient arthralgia/myalgia, or grade 3 AST/ALT elevation (resolving to baseline within 3 weeks). Furthermore, delayed recovery from toxicity related to treatment with BMS-188797 and cisplatin that delayed scheduled retreatment for 21 days or longer was regarded as DLT.
(§1) Toxicity was evaluated according to NCI CTC (Vers. 2.0; revised April 30, 1999) in all patients receiving study drug. Tumour measurement was performed in patients with measurable disease after every other cycle; response was assessed according to World Health Organization (WHO) criteria. Ascites or serum tumour marker elevations were not considered in the assessment of response status except in case of progressive disease or complete remission when both had to be normalised.

[3] = test system: patients with advanced solid tumours; test: Antitumour activity, response by WHO criteria; format: in vivo, human
Description: as §1

[4] = test system: patients with advanced malignancies; parameters: method as in Sullivan et al, 2000; conditions: single agent, 1-h infusion every 3 weeks; ref Sullivan et al, 2000; cited from earlier work
[5] = test system: patients with advanced malignancies; parameters: method as in Advani et al (2003); conditions: single agent, weekly administration; ref Advani et al (2003); cited from earlier work
patients = test system: patients; parameters: method as in Sullivan et al, 2001; conditions: ref Sullivan et al, 2001, cited from earlier work
[6] = test system: patients with advanced malignancies; parameters: method as in Advani et al, 2002; conditions: weekly BMS-188797 with carboplatin, DLs AUC 6/33 mg m−2 and AUC 5/43 mg m−2, preliminary data; ref Advani et al, 2002; cited from earlier work
[7] = test system: human tumour cell lines highly resistant to paclitaxel; parameters: method as in Rose et al, 2001; conditions: ref Rose et al, 2001, cited from earlier work
[8] = test system: paclitaxel-resistant tumour models in mice; parameters: method as in Rose et al, 2001; conditions: ref Rose et al, 2001; cited from earlier work
[9] = 80 mg m−2 1-h infusion with cisplatin 75 mg m−2, cycle 1, n=3, mean±s.d.
[10] = 110 mg m−2 1-h infusion with cisplatin 75 mg m−2, cycle 1, n=12, mean±s.d.
[11] = 150 mg m−2 1-h infusion with cisplatin 75 mg m−2, cycle 1, n=1
[12] = mean±s.d. of the three dose groups (80, 110, 150 mg m−2), cycle 1
[13] = 1-h infusion every 3 weeks combined with cisplatin 75 mg m−2

COC(=O)O[C@@]12CO[C@@H]1C[C@H](O)[C@@]1(C)C(=O)[C@H](OC(C)=O)C3=C(C)[C@@H](OC(=O)[C@H](O)[C@@H](NC(=O)c4ccccc4)c4ccccc4)C[C@@](O)([C@@H](OC(=O)c4ccccc4)[C@H]21)C3(C)C [BMS-188797, 4-desacetyl-4-methyl carbonate derivate of paclitaxel]
Cl [1, 9]: 333±14 (317, 344) ml min−1 m−2 | VSS [1, 9]: 331±135 (214, 478) l m−2 | interpatient coefficient of variation of CL ([1]; 110 mg m−2): 19% | interpatient coefficient of variation of VSS ([1]; 110 mg m−2): 35% | interpatient coefficient of variation of t1/2 ([1]; 110 mg m−2): 24% | Cl [1, 10]: 322±60 (234, 437) ml min−1 m−2 | VSS [1, 10]: 244±86 (115, 395) l m−2 | range of AUC0-∞ values ([1]; 110 mg m−2 DL): 1.8 fold | Cl [1, 11]: 206 NA ml min−1 m−2 | VSS [1, 11]: 209 NA l m−2 | dose dependence (linearity) of pharmacokinetics ([1]; 80-150 mg m−2 with cisplatin 75 mg m−2): appeared linear through the 110 mg m^−2, but not through the 150 mg m^−2 DL; also recorded: appeared independent of dose through the 110 mg m^−2 DL, but not through the 150 mg m^−2 DL; also recorded: appeared linear through a DL of 110 mg m^−2 | AUC(0-inf) [1, 9]: 4000 ± 184 ng·h/mL | Cmax [1, 9]: 2650 ± 690 ng/mL | half-life ([1]; 80 mg m−2 1-h infusion with cisplatin 75 mg m−2, cycle 1, n=3, mean±s.d., read-out: t1/2 (converted)): 31 ± 11.7 h | AUC(0-inf) [1, 10]: 5870 ± 1060 ng·h/mL | Cmax [1, 10]: 3370 ± 591 ng/mL | half-life ([1]; 110 mg m−2 1-h infusion with cisplatin 75 mg m−2, cycle 1, n=12, mean±s.d., read-out: t1/2 (converted)): 30.6 ± 7.5 h | AUC(0-inf) [1, 11]: 12200 ng·h/mL | Cmax [1, 11]: 5770 ng/mL | half-life ([1]; 150 mg m−2 1-h infusion with cisplatin 75 mg m−2, cycle 1, n=1, read-out: t1/2 (converted)): 31.4 h | half-life ([1]; 150 mg, mean±s.d. of the three dose groups (80, 110, 150 mg m−2), cycle 1, read-out: terminal half-life (converted)): 30.8 ± 7.7 h | clearance [1, 12]: 317±60 ml min^−1 m^−2 | volume of distribution at steady state [1, 12]: 258±96 l m^−2 | clearance in the 150 mg m−2 patient relative to patients at 80 or 110 mg m−2 ([1]; n=1 at 150 mg m−2): approximately one-third lower | Mild hypersensitivity reactions (grade 2 rash and dyspnea), patients affected ([2]; 110 mg m−2 DL, with steroid and H1/H2-antagonist premedication): only one patient | maximum tolerated dose (MTD) [2, 13]: 110 mg m^−2 | recommended phase II dose [2, 13]: 110 mg m^−2 | median duration of neutropenia ([2]; DL 1, 80 mg m−2): 4 days | median time to the neutrophil nadir ([2]; DL 1, 80 mg m−2): 12 days | median duration of neutropenia ([2]; DL 2, 110 mg m−2): 8 days | median time to the neutrophil nadir ([2]; DL 2, 110 mg m−2): 14 days | MTD (dose level designated) ([2]; DL 2, 110 mg m−2 with cisplatin 75 mg m−2): MTD | median duration of neutropenia ([2]; DL 3, 150 mg m−2): 4 days | median time to the neutrophil nadir ([2]; DL 3, 150 mg m−2): 8 days | alopecia, patients affected ([2]; all dose levels, 16 patients): All patients but one | stable disease as best response, patients ([3]; DL 1, 80 mg m−2 with cisplatin, ovarian cancer, NSCLC, CUP): three patients | progressive disease, patients ([3]; DL 2, 110 mg m−2 with cisplatin, lung cancer (two), ovarian sarcoma, CUP): Four patients | complete remissions ([3]; DL 2, 110 mg m−2 with cisplatin, ovarian (two) and cervical cancer (one)): three complete remissions | partial response ([3]; DL 2, 110 mg m−2 with cisplatin, ovarian cancer): One partial response | stable disease, patients ([3]; DL 2, 110 mg m−2 with cisplatin, urachus carcinoma and NSCLC): two patients | best response of the only patient treated ([3]; DL 3, 150 mg m−2 with cisplatin, CUP): disease progression | objective response, patients ([3]; all dose levels, 16 patients): four patients | maximum tolerated dose (MTD) [4]: 175 mg m^−2 | MTD [5]: 50 mg m^−2 | MTD (patients; with carboplatin AUC 5, every 3 weeks): 125 mg m^−2 | Dose-limiting toxicities (DLT) (patients; with carboplatin, every 3 weeks): febrile neutropenia and slow recovery from neutropenia | dose-limiting toxicities [6]: prolonged grade 4 neutropenia and delayed haematological recovery | antiproliferative activity ([7]; cell lines resistant through P-glycoprotein overexpression or beta-tubulin mutations): potent antiproliferative activity | cell cycle effect [7]: G2/M cell cycle arrest | in vivo activity [8]: potent in vivo activity
